Measured values published in the supplement of paper PMC10307832.

Tests used:
Assay in all cases: relative viability (nuclei count vs DMSO), 5 days (fraction); higher = more cells survive
XMD13-2 + Luminespib = compound: C1CC1C(=O)NC2=NNC3=C2C=CC(=C3)C4=CC(=CC=C4)C(=O)NC5CC5 [XMD13-2] + CCNC(=O)c1noc(-c2cc(C(C)C)c(O)cc2O)c1-c1ccc(CN2CCOCC2)cc1 [Luminespib] (partner 0.01 µM)
Outline: (§1)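 Relative viability divides the nuclei count in treated wells by that in vehicle wells. Lung cancer cell lines were seeded in 1536-well plates, dosed by pin tool the next day, and fixed and stained after 5 days in one step with final 0.05% Triton X-100, 1% formaldehyde and 1 ug/ml Hoechst. Dosing was a single drug or a fixed anchor-drug dose plus five library-drug doses (not always all listed) in √10 steps, and values are medians of duplicate plates imaged at 4×.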

ALW-II-49-7 + Lapatinib = compound: Cc1ccc(C(=O)Nc2cccc(C(F)(F)F)c2)cc1Nc1cncc(C(N)=O)c1 [ALW-II-49-7] + CS(=O)(=O)CCNCc1ccc(-c2ccc3ncnc(Nc4ccc(OCc5cccc(F)c5)c(Cl)c4)c3c2)o1 [Lapatinib] (partner 2 µM)
Outline: as §1

Dasatinib + Palbociclib = compound: Cc1nc(Nc2ncc(C(=O)Nc3c(C)cccc3Cl)s2)cc(N2CCN(CCO)CC2)n1 [Dasatinib] + CC(=O)c1c(C)c2cnc(Nc3ccc(N4CCNCC4)cn3)nc2n(C2CCCC2)c1=O [Palbociclib] (partner 0.5 µM)
Outline: as §1

Dasatinib + Tozasertib = compound: Cc1nc(Nc2ncc(C(=O)Nc3c(C)cccc3Cl)s2)cc(N2CCN(CCO)CC2)n1 [Dasatinib] + Cc1cc(Nc2cc(N3CCN(C)CC3)nc(Sc3ccc(NC(=O)C4CC4)cc3)n2)n[nH]1 [Tozasertib] (partner 0.1 µM)
Outline: as §1

Cell Line	relative viability (XMD13-2 + Luminespib; first compound 0.05 µM)	relative viability (XMD13-2 + Luminespib; first compound 0.1581 µM)	relative viability (XMD13-2 + Luminespib; first compound 0.5 µM)	relative viability (XMD13-2 + Luminespib; first compound 1.581 µM)	relative viability (XMD13-2 + Luminespib; first compound 5 µM)	relative viability (ALW-II-49-7 + Lapatinib; first compound 0.08 µM)	relative viability (ALW-II-49-7 + Lapatinib; first compound 0.253 µM)	relative viability (ALW-II-49-7 + Lapatinib; first compound 0.8 µM)	relative viability (ALW-II-49-7 + Lapatinib; first compound 2.53 µM)	relative viability (ALW-II-49-7 + Lapatinib; first compound 8 µM)	relative viability (Dasatinib + Palbociclib; first compound 0.005 µM)	relative viability (Dasatinib + Palbociclib; first compound 0.01581 µM)	relative viability (Dasatinib + Palbociclib; first compound 0.05 µM)	relative viability (Dasatinib + Palbociclib; first compound 0.1581 µM)	relative viability (Dasatinib + Palbociclib; first compound 0.5 µM)	relative viability (Dasatinib + Tozasertib; first compound 0.005 µM)	relative viability (Dasatinib + Tozasertib; first compound 0.01581 µM)	relative viability (Dasatinib + Tozasertib; first compound 0.05 µM)	relative viability (Dasatinib + Tozasertib; first compound 0.1581 µM)	relative viability (Dasatinib + Tozasertib; first compound 0.5 µM)
PC-3 [JPC-3]	0.681	0.661	0.64	0.776	0.782	0.387	0.461	0.485	0.471	0.419	0.593	0.534	0.607	0.568	0.465	0.895	0.859	0.976	0.799	0.579
HCC-44	1.28	1.12	1.17	1.06	1.03	0.967	1.04	0.995	0.973	0.923	1.07	0.878	1.06	1.14	1.29	1.19	0.716	0.452	0.75	0.313
NCI-H2405	0.853	0.634	0.578	0.641	0.633	1.01	1.24	0.972	0.938	0.89	0.498	0.374	0.3	0.219	0.186	0.639	0.468	0.448	0.222	0.161
LXF-289	0.717	0.618	0.72	0.76	0.723	0.864	0.818	0.922	1.01	0.967	0.603	0.676	0.672	0.384	0.118	0.193	0.0886	0.0932	0.0636	0.0438
LOU-NH91	0.355	0.318	0.374	0.347	0.318	0.738	0.809	0.742	0.589	0.699	0.569	0.51	0.553	0.498	0.369	0.721	0.652	0.637	0.556	0.307
A549						0.958	1.03	1.01	1.05	0.978										
H3255	0.859	0.947	0.859	0.62	0.955	0.27	0.363	0.266	0.225	0.212	0.312	0.333	0.329	0.317	0.274	0.721	0.543	0.463	0.547	0.322
NCI-H1395	0.669	0.668	0.809	0.66	0.83	0.869	1.21	1.05	0.967	0.929	0.594	0.588	0.535	0.443	0.304	0.819	0.713	0.723	0.555	0.4
LC-2-ad	1.16	1.06	0.973	0.992	0.952	0.812	0.96	0.932	0.947	0.753	0.515	0.471	0.477	0.299	0.159	0.421	0.366	0.315	0.271	0.249
NCI-H838	0.398	0.308	0.407	0.235	0.347	0.941	0.887	0.797	1.04	0.853	0.193	0.156	0.182	0.148	0.141	0.279	0.292	0.245	0.179	0.2
Calu-6						0.896	1.08	1.02	1.59	1.02										
NCI-H1648											0.281	0.29	0.334	0.298	0.243	0.624	0.545	0.327	0.233	0.14
LCLC-97TM1	0.883	0.743	0.811	0.667	0.677	1.03	1.06	1.06	0.842	1.01	0.203	0.227	0.246	0.2	0.13	0.187	0.211	0.244	0.217	0.159
HCC-15	0.379	0.492	0.479	0.238	0.192	0.811	0.818	0.793	0.815	0.764	0.714	0.669	0.673	0.578	0.565	0.424	0.403	0.338	0.251	0.235
CAL-12T	0.373	0.832	0.933	0.286	0.75	0.641			0.568	0.697	0.418	0.414	0.402	0.191	0.144	0.386	0.346	0.297	0.228	0.112
NCI-H727	0.475	0.326	0.352	0.34	0.378	0.984	1.08	0.872	0.965	0.871	0.553	0.455	0.523	0.388	0.281	0.607	0.523	0.606	0.379	0.185
ABC-1	0.477	0.919	0.611	0.545	0.325	1.31	1.07	1.1	0.311	0.999	0.625	0.5	0.662	0.524	0.688	0.174	0.217	0.172	0.15	0.154
NCI-H2023	0.884	0.703	0.954	0.712	0.913	0.801	0.6	0.866	0.743	0.58	0.319	0.304	0.303	0.326	0.204	0.304	0.316	0.293	0.245	0.219

Cell Line	relative viability (XMD13-2 + Luminespib; first compound 0.05 µM)	relative viability (XMD13-2 + Luminespib; first compound 0.1581 µM)	relative viability (XMD13-2 + Luminespib; first compound 0.5 µM)	relative viability (XMD13-2 + Luminespib; first compound 1.581 µM)	relative viability (XMD13-2 + Luminespib; first compound 5 µM)	relative viability (ALW-II-49-7 + Lapatinib; first compound 0.08 µM)	relative viability (ALW-II-49-7 + Lapatinib; first compound 0.253 µM)	relative viability (ALW-II-49-7 + Lapatinib; first compound 0.8 µM)	relative viability (ALW-II-49-7 + Lapatinib; first compound 2.53 µM)	relative viability (ALW-II-49-7 + Lapatinib; first compound 8 µM)	relative viability (Dasatinib + Palbociclib; first compound 0.005 µM)	relative viability (Dasatinib + Palbociclib; first compound 0.01581 µM)	relative viability (Dasatinib + Palbociclib; first compound 0.05 µM)	relative viability (Dasatinib + Palbociclib; first compound 0.1581 µM)	relative viability (Dasatinib + Palbociclib; first compound 0.5 µM)	relative viability (Dasatinib + Tozasertib; first compound 0.005 µM)	relative viability (Dasatinib + Tozasertib; first compound 0.01581 µM)	relative viability (Dasatinib + Tozasertib; first compound 0.05 µM)	relative viability (Dasatinib + Tozasertib; first compound 0.1581 µM)	relative viability (Dasatinib + Tozasertib; first compound 0.5 µM)
NCI-H2342	0.721	0.712	0.642	0.767	0.806						0.483	0.646	0.464	0.393	0.267	0.524	0.427	0.333	0.356	0.218
SW 1573	0.276	0.239	0.308	0.188	0.213	1.14	1.21	1.1	1.2	1.15	0.36		0.295	0.182	0.208	0.174	0.189	0.193	0.128	0.131
ChaGo-K-1	0.585	0.582	0.603	0.617	0.476						0.947	0.881	0.892	0.802	0.634	0.23	0.203	0.207	0.21	0.186
NCI-H1703						1.17	1.14	0.906	0.448	0.363										
NCI-H522	1.02	1.41	1.18	1.13	1.06						1.1	0.802	0.985	0.773	0.722	0.568	0.483	0.539	0.466	0.437
LCLC-103H	0.958	0.943	0.998	1.07	0.739						0.506	0.47	0.452	0.453	0.404	0.485	0.461	0.453	0.3	0.129
NCI-H1563	0.521	0.526	0.527	0.536	0.506	1.07	0.92	1.16	0.837	0.897										
SW 900	0.192	0.174	0.2	0.178	0.19						0.454	0.273	0.276	0.222	0.183	0.609	0.564	0.607	0.46	0.359
NCI-H1792	0.25	0.462	0.447	0.571	0.377	0.673	0.881	0.943	0.98	0.774	0.685	0.639	0.566	0.429	0.271					
NCI-H1623	0.594	0.514	0.517	0.456	0.502											0.447	0.329	0.442	0.351	0.363
IA-LM						0.83	0.906	0.645	0.152	0.169										
HCC-366						1.21	1.32	1	1.09	1.13	0.412	0.185	0.173	0.114	0.0885	0.115	0.109	0.109	0.0407	0.0371
HCC-78						0.779	0.957	0.993	0.878	0.623	0.459	0.429	0.443	0.382	0.239	0.47	0.371	0.395	0.242	0.181
EBC-1						0.197	0.186	0.15	0.231	0.162										
NCI-H441	0.314	0.382	0.375	0.432	0.315						0.265	0.191	0.2	0.14	0.115	0.594	0.539	0.625	0.467	0.375
NCI-H1299						0.986	1.06	0.916	0.839	0.763										
NCI-H596	0.987	1	0.909	0.903	1.2	1.03	1.1	1.13	1.02	0.978						0.766	0.671	0.87	0.507	0.393
